{"source": "patent US20080305544A1", "about": "“Method of Producing Nerve Cell” (KYOWA HAKKO KOGYO CO., LTD. TOKYO, JAPAN, priority 2004, published 2008)", "key": {"ES cell EB5 [1]": {"test_system": "ES cell EB5", "experiment": "Nerve cell inducing ratio: colonies with neurite / total colonies, differentiation induction of EB5", "assay_type": "cell-based", "settings": "for activity to induce differentiation of embryonic stem cells into nerve cells by the combination of heparin and vitamin B12: substance added to 0.01% heparin and 100 nmol/l vitamin B12, conclusion of Example 2; for induction of nerve cells (nerve cell inducing ratio): FIG. 2", "method": "In the following Examples, an ES cell EB5 [Nature Genet., 24, 372, (2000)] was used as the embryonic stem cell. The EB5 was inoculated into a dish coated with 0.1% of gelatin and sub-cultured at 37° C. in a CO2 incubator ventilated with 5% of carbon dioxide while keeping its undifferentiated state, using G-MEM (Invitrogen) containing 1% fetal bovine serum (manufactured by JRH Biosciences), 10% Knockout Serum Replacement (manufactured by Invitrogen), 1 mmol/l pyruvic acid (manufactured by Sigma), 0.1 mmol/l nonessential amino acids (manufactured by Invitrogen), 0.1 mmol/12-mercaptoethanol (manufactured by Nacalai Tesque), […] blasticidin (manufactured by Invitrogen) and 2×10^3 U/ml ESGRO (manufactured by Chemicon) (to be referred to as “maintenance medium” hereinafter). When differentiation of EB5 is induced, 2.5×10^3 cells of EB5 were inoculated into a 24 well plate coated with 0.1% of gelatin, a medium prepared by eliminating serum, blasticidin and ESGRO from the maintenance medium (hereinafter referred to as “differentiation induction medium”) was added at 1 ml to respective wells, and the cells were allowed to adhere thereto by incubating at 37° C. for 2 hours. Thereafter, 500 μl of PBS containing various concentration of heparin (manufactured by Sigma) or vitamin B12 (cyanocobalamin, manufactured by Nacalai Tesque) (hereinafter referred to as “test solution 1”) was added thereto and incubated at 37° C. for 14 days without changing the medium. Each test condition was carried out in tandem. In this connection, the concentrations of heparin and vitamin B12 mean their concentrations in the test solution 1. On the 14th day after addition of the test solution 1, colonies having a diameter of 50 μm or more were counted using an optical microscope to calculate the number of total colonies. Also, among the colonies, a colony on which neurite was observed was regarded as a nerve cell colony, and the nerve cell inducing ratio was calculated by the following formula. Nerve cell inducing ratio(%)=the number of nerve cell colonies/the number of total colonies×100 Nerve cell inducing differentiation ratio was examined in the same manner as in Example 1, except that PBS containing 0.01% of heparin and 100 nmol/l of vitamin B12 (hereinafter referred to as “test solution 2”), a test solution 3 containing 0.1 μg/ml of biotin [(+)-biotin, manufactured by Wako Pure Chemical Industries] in the test solution 2, a test solution 4 containing 0.42 μg/ml of K4[Fe(CN)6] (manufactured by Nacalai Tesque) in the test solution 2, a test solution 5 containing 0.081 μg/ml of putrescine (manufactured by Sigma) in the test solution 2, a test solution 6 containing 0.1 μg/ml of biotin, 0.42 μg/ml of K4[Fe(CN)6] and 0.081 μg/ml of putrescine in the test solution 2 and a test solution 7 containing 0.01% of heparin, 0.1 […] of biotin, 0.42 μg/ml of K[Fe(CN)6] and 0.081 μg/ml of putrescine were used instead of the test solution 1 in the above-described Example 1."}, "ES cell EB5 [2]": {"test_system": "ES cell EB5", "experiment": "Number of total colonies formed from EB5 after 14 days of differentiation induction culture", "assay_type": "cell-based", "settings": "vitamin B12 added; heparin 0% vs 0.01% addition condition; 14 days after commencement of culturing; FIG. 1", "method": "In the following Examples, an ES cell EB5 [Nature Genet., 24, 372, (2000)] was used as the embryonic stem cell.\nThe EB5 was inoculated into a dish coated with 0.1% of gelatin and sub-cultured at 37° C. in a CO2 incubator ventilated with 5% of carbon dioxide while keeping its undifferentiated state, using G-MEM (Invitrogen) containing 1% fetal bovine serum (manufactured by JRH Biosciences), 10% Knockout Serum Replacement (manufactured by Invitrogen), 1 mmol/l pyruvic acid (manufactured by Sigma), 0.1 mmol/l nonessential amino acids (manufactured by Invitrogen), 0.1 mmol/12-mercaptoethanol (manufactured by Nacalai Tesque), […] blasticidin (manufactured by Invitrogen) and 2×10^3 U/ml ESGRO (manufactured by Chemicon) (to be referred to as “maintenance medium” hereinafter). […]\nOn the 14th day after addition of the test solution 1, colonies having a diameter of 50 μm or more were counted using an optical microscope to calculate the number of total colonies. Also, among the colonies, a colony on which neurite was observed was regarded as a nerve cell colony, and the nerve cell inducing ratio was calculated by the following formula."}}, "data": [{"compound": "NCCCCN", "note": "[putrescine]", "values": [{"measurement": "activity to induce differentiation of embryonic stem cells into nerve cells by the combination of heparin and vitamin B12", "setting": "ES cell EB5 [1]", "result": "reinforced"}]}, {"compound": "O=C(O)CCCC[C@@H]1SC[C@@H]2NC(=O)N[C@@H]21", "note": "[biotin, (+)-biotin]", "values": [{"measurement": "activity to induce differentiation of embryonic stem cells into nerve cells by the combination of heparin and vitamin B12", "setting": "ES cell EB5 [1]", "result": "reinforced"}]}, {"compound": "heparin", "values": [{"measurement": "number of total colonies", "setting": "ES cell EB5 [2]", "result": "difference in the number of total colonies was not found"}, {"measurement": "induction of nerve cells (number of nerve cell colonies)", "setting": "ES cell EB5 [1]; vitamin B12 not added, heparin concentration varied, 14 days, FIG. 3", "result": "hardly induced"}]}, {"compound": "cyanocobalamin [vitamin B12]", "values": [{"measurement": "induction of nerve cells (nerve cell inducing ratio)", "setting": "ES cell EB5 [1]; heparin 0% addition condition, vitamin B12 added, 14 days", "result": "hardly induced"}, {"measurement": "induction of nerve cells (nerve cell inducing ratio)", "setting": "ES cell EB5 [1]; heparin 0.01% addition condition, vitamin B12 concentration varied, 14 days", "result": "nerve cells are induced"}]}]}
